# Source: patent EP4032896A1, “THIAZOLOPYRIMIDONES AS INHIBITORS OF DDR1/2 AND THERAPEUTIC USES THEREOF” (Fundación del Sector Público Estatal Centro Nacional de …, priority 2021, dated 2022)
# Tests used:
# DDR1 [1] = biological target: T1, DDR1 (Homo sapiens, UniProt Q08345); assay: LanthaScreen Eu-Kinase Binding Assay (TR-FRET tracer displacement), DDR1; details: catalytic domain GST Tag DDR1; Kinase Tracer 178
# T1 construct: The enzymes were purchased as a catalytic domain GST Tag DDR1(#PR6913A); purchased ThermoFisher PR6913A
# T1 sequence (Q08345 610-905 limits assumed): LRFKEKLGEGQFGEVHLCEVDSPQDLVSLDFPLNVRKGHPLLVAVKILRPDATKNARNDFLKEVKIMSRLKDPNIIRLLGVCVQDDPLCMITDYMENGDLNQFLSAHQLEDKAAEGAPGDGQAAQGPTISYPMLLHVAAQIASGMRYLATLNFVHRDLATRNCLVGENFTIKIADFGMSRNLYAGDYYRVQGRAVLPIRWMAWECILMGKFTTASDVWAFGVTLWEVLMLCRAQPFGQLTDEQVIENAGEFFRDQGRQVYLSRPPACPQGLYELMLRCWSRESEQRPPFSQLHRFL
# Excerpt: (§1) DDR1/2 binding assay: The binding assay relies on the LanthaScreen ™ Eu-Kinase Binding Assay (ThermoFisher Scientfic). This is a kinase assay platform based on measuring the binding and displacement of an Alexa Fluor® conjugate of an ATP-competitive kinase inhibitor or tracer at a kinase active site (Kinase Tracer 178. #PV5593). Binding of the tracer to the kinase is detected by addition of a europium (Eu)-labeled anti-GST antibody (#PV 5594) which specifically labels the kinase of interest. This binding results in a high degree of fluorescence resonance energy transfer (FRET), whereas displacement of the tracer with a kinase inhibitor results in a loss of FRET. The enzymes were purchased as a catalytic domain GST Tag DDR1(#PR6913A) and DDR2 (#PR7167A) from ThermoFisher. Assay conditions were as indicated by the kit manufacturers. Assays were performed in 384-well plates. The final read out was generated using an EnVision plate reader (Perkin-Elmer). The emission ratio was calculated by dividing the acceptor/tracer emission (665 nm) by the antibody/donor emission (615 nm). Values were plotted against the inhibitor concentration and fit to a sigmoid dose-response curve using Activity base by IDBS software.
# DDR2 = biological target: T2, DDR2 (Homo sapiens, UniProt Q16832); assay: LanthaScreen Eu-Kinase Binding Assay (TR-FRET tracer displacement), DDR2; details: catalytic domain GST Tag DDR2; Kinase Tracer 178
# T2 construct: The enzymes were purchased as a catalytic domain GST Tag DDR1(#PR6913A) and DDR2 (#PR7167A); purchased ThermoFisher PR7167A
# T2 sequence (Q16832 563-849 limits assumed): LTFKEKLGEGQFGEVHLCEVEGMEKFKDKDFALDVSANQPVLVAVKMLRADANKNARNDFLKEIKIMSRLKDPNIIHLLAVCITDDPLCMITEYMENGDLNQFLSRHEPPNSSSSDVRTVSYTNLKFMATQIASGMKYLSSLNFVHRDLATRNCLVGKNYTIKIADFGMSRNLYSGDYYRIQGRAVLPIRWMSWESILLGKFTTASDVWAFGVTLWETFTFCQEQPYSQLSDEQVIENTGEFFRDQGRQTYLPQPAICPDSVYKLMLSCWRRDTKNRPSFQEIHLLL
# Excerpt: as §1
# DDR1 [2] = biological target: T3, DDR1 (Mus musculus, UniProt Q03146); assay: Cellular assay: inhibition of Collagen I-induced DDR1 autophosphorylation in HEK293T cells transiently transfected with DDR1 plasmid (Western blot); type: cell-based, human; details: pcDNA3.1 DDR1 WT mouse plasmid, compound 1 h, then 10 µg/mL Collagen I 1 h, P-DDR1 (Y513), read-out: pDDR1 EC50
# T3 construct: expressed in transfected cells; host or cells: HEK293T
# T3 sequence (Q03146 20-911): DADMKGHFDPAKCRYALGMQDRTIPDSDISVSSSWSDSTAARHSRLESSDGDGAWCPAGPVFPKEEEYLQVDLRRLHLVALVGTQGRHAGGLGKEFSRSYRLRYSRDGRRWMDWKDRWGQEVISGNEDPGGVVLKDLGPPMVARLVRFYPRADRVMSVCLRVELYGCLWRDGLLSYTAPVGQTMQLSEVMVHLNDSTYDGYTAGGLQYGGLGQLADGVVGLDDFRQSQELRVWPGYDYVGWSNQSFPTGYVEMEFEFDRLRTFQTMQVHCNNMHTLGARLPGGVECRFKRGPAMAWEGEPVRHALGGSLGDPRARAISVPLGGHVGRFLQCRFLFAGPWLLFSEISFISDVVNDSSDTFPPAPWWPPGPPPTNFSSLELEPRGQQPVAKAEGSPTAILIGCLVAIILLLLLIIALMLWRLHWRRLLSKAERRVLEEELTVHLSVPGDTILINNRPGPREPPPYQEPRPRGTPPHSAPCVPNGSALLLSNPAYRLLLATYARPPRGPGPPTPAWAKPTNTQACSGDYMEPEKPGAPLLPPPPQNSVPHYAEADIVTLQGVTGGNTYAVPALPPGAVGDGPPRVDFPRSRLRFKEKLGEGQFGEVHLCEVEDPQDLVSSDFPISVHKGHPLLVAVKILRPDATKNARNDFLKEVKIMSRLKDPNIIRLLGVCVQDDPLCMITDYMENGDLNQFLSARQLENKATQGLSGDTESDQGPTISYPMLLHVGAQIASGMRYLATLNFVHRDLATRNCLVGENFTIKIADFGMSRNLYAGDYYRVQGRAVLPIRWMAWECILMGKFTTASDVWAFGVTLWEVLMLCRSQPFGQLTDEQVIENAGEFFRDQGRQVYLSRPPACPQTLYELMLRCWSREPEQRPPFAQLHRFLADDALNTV
# Method: DDR1/2 cellular assay: Transient transfection of HEK293T cells with DDR1 plasmid is used to study the inhibition of the autophosphorylation of DDR1 induced by Collagen I in cells. HEK293T are seeded, 6x10^5 cells per well in 6-well plates and incubated for 6 h at 37 °C, 5% CO2. Then, cells are transfected using Effectene reactive (Quiagen) with pcDNA3.1 DDR1 WT mouse plasmid. Cells are incubated with transfection complexes under normal growth conditions for 24 h. After that, medium is replaced with fresh medium and cells are incubated for an additional 18 h. Eight serial 1:3 compound dilutions are made in DMSO. The compounds are added to each well of 6 well cell plates and are incubated at 37 °C under CO2 atmosphere 1 h. DDR1's autophosphorylation is stimulated by 1h treatment with 10 µg/mL Collagen I. Then, cells are washed in PBS, lyse adding 100 µl of complete RIPA protein lysis buffer (RIPA Buffer, 1 mM DTT, 5 mM Bezamidine, 10 µg/mL Aprotinin, 10 µg/mL Leupeptin, 710 ng/mL Pepstatin A, 100 µg/mL Trypsin Inhibitor, 40 µg/mL Bestatin, completed with PhosSTOP EASYpack and complete Mini, EDTA-free) and incubated 20 minutes at 4 °C and then centrifugated. Lysates are kept at -80 °C. The protein content of the lysates is determined by DC protein assay (Biorad, Ref. 5000116). The proteins are resolved by SDS-PAGE and transferred to nitrocellulose membrane (GE Healthcare #10600003). The membranes are incubated overnight at 4 °C with antibodies specific for DDR1 (D1G6) (Cell signaling #5583), P-DDR1 (Y513) (E1N8F) (Cell Signaling # 14531) they are washed and then incubated with Alexa Fluor 680 goat anti-rabbit IgG secondary antibodies (Invitrogen, A21076). The bands are visualized and quantified using an Odyssey infrared imaging system (Li-Cor Biosciences). The percentage of DDR1 phosphorylation is finally plotted against concentration for each compound and EC50s for intracellular DDR1 inhibition are calculated using ActivityBase from IDBS.
Structure (SMILES),IC50 (DDR1 [1]) [nM],IC50 (DDR2) [nM],EC50 (DDR1 [2]) [nM]
"O=c1ccnc2sc(-c3ccnc(Nc4cccc(N5CCN(CCO)CC5)c4)n3)c(-c3ccc(F)c(C(F)(F)F)c3)n12 [Compound 63, 3-(4-Fluoro-3-trifluoromethyl-phenyl)-2-(2-{3-[4-(2-hydroxy-ethyl)-piperazin-1-yl]-phenylamino}-pyrimidin-4-yl)-thiazolo[3,2-a]pyrimidin-5-one]",119,325,142
"CC(C)c1c(-c2ccnc(Nc3cccc(N4CCN(CCO)CC4)c3)n2)sc2nccc(=O)n12 [Compound 64, 2-(2-{3-[4-(2-Hydroxy-ethyl)-piperazin-1-yl]-phenylamino}-pyrimidin-4-yl)-3-isopropyl-thiazolo[3,2-a]pyrimidin-5-one]",15.3,90.6,58.7
"O=c1ccnc2sc(-c3ccnc(Nc4cccc(N5CCN(CCO)CC5)c4)n3)c(C3CC3)n12 [Compound 65, 3-Cyclopropyl-2-(2-{3-[4-(2-hydroxy-ethyl)-piperazin-1-yl]-phenylamino}-pyrimidin-4-yl)-thiazolo[3,2-a]pyrimidin-5-one]",118,466,163
"O=c1ccnc2sc(-c3ccnc(Nc4cccc(N5CCN(CCO)CC5)c4)n3)c(C3CCOCC3)n12 [Compound 66, 2-(2-{3-[4-(2-Hydroxy-ethyl)-piperazin-1-yl]-phenylamino}-pyrimidin-4-yl)-3-(tetrahydropyran-4-yl)-thiazolo[3,2-a]pyrimidin-5-one]",321,1480,610
"CCOC(=O)c1cnc2sc(-c3ccnc(Nc4cccc(N5CCN(CCO)CC5)c4)n3)c(-c3ccccc3)n2c1=O [Compound 71, 2-(2-{3-[4-(2-Hydroxy-ethyl)-piperazin-1-yl]-phenylamino}-pyrimidin-4-yl)-5-oxo-3-phenyl-5H-thiazolo[3,2-a]pyrimidine-6-carboxylic acid ethyl ester]",147,423,34.6
"Cc1nc2sc(-c3ccnc(Nc4cccc(N5CCN(CCO)CC5)c4)n3)c(-c3ccccc3)n2c(=O)c1C [Compound 75, 2-(2-{3-[4-(2-Hydroxy-ethyl)-piperazin-1-yl]-phenylamino}-pyrimidin-4-yl)-6,7-dimethyl-3-phenyl-thiazolo[3,2-a]pyrimidin-5-one]",15.3,55.8,141
"CCc1c(C)nc2sc(-c3ccnc(Nc4cccc(N5CCN(CCO)CC5)c4)n3)c(-c3ccccc3)n2c1=O [Compound 77, 6-Ethyl-2-(2-{3-[4-(2-hydroxy-ethyl)-piperazin-1-yl]-phenylamino}-pyrimidin-4-yl)-7-methyl-3-phenyl-thiazolo[3,2-a]pyrimidin-5-one]",25.5,69.4,46.8

# The next compounds have a lower IC50 (DDR1 [1]) than those just listed; values first:
IC50 (DDR1 [1]) [nM],IC50 (DDR2) [nM],EC50 (DDR1 [2]) [nM],Structure (SMILES)
12.9,40.8,63.2,"NS(=O)(=O)c1cccc(Nc2nccc(-c3sc4nccc(=O)n4c3-c3ccc(Cl)c(Cl)c3)n2)c1 [Compound 61, 3-{4-[3-(3,4-Dichloro-phenyl)-5-oxo-5H-thiazolo[3,2-a]pyrimidin-2-yl]-pyrimidin-2-ylamino}-benzenesulfonamide]"
10.9,54,82.7,"COc1ccc(-c2c(-c3ccnc(Nc4cccc(N5CCN(CCO)CC5)c4)n3)sc3nccc(=O)n23)cc1Cl [Compound 62, 3-(3-Chloro-4-methoxy-phenyl)-2-(2-{3-[4-(2-hydroxy-ethyl)-piperazin-1-yl]-phenylamino}-pyrimidin-4-yl)-thiazolo[3,2-a]pyrimidin-5-one]"
9.06,26.9,59,"Cc1cc(=O)n2c(-c3ccccc3)c(-c3ccnc(Nc4cccc(N5CCN(CCO)CC5)c4)n3)sc2n1 [Compound 72, 2-(2-{3-[4-(2-Hydroxy-ethyl)-piperazin-1-yl]-phenylamino}-pyrimidin-4-yl)-7-methyl-3-phenyl-thiazolo[3,2-a]pyrimidin-5-one]"
12.9,11.6,39.5,"CCc1cc(=O)n2c(-c3ccccc3)c(-c3ccnc(Nc4cccc(N5CCN(CCO)CC5)c4)n3)sc2n1 [Compound 74, 7-Ethyl-2-(2-{3-[4-(2-hydroxy-ethyl)-piperazin-1-yl]-phenylamino}-pyrimidin-4-yl)-3-phenyl-thiazolo[3,2-a]pyrimidin-5-one]"
